Measurements as given in patent publication EP0581464A1, “Ester derivatives and pharmaceutical compositions containing them” (ZENECA LIMITED, priority 1992, dated 1994).

Biological target: T1, 5-LO (Homo sapiens, UniProt P09917)
T1 construct: incubating a test compound with heparinised human blood, prior to challenge with the calcium ionophore A23187; endogenous in cells; host or cells: human whole blood (blood cells)
T1 sequence (P09917 1-674): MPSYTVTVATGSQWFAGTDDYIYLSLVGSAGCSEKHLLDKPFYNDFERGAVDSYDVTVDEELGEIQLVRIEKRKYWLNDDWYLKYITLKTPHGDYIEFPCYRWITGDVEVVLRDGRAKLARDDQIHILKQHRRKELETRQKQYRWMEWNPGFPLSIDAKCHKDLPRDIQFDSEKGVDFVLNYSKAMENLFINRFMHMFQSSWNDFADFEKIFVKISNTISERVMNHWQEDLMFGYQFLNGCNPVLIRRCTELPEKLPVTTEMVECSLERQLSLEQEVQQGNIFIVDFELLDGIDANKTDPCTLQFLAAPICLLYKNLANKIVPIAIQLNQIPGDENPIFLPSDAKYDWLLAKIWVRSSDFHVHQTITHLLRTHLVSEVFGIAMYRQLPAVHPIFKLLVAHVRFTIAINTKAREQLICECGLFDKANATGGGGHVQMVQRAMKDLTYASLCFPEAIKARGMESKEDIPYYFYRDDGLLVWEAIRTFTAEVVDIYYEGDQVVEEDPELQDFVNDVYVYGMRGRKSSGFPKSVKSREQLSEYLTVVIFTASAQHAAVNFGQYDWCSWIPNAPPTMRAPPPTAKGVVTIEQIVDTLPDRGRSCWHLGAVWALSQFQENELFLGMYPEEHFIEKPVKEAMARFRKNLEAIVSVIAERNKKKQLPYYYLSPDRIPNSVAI
Assay: Test a): in vitro heparinised human blood challenged with calcium ionophore A23187, radioimmunoassay of LTB4
Type: cell-based
Conditions: A23187 challenge, read-out: IC50 against LTB4 in test (a)
Description: As stated previously, the compounds of the formula I are inhibitors of the enzyme 5-LO. […] J. Pharmacol. 1985, 84, 34P) which involve the use of a protein-LTB4 conjugate produced using the procedure of Young et alia (Prostaglandins, 1983, 26(4), 605-613). The effects of a test compound on the enzyme cyclooxygenase (which is involved in the alternative metabolic pathway for arachidonic acid and gives rise to prostaglandins, thromboxanes and related metabolites) may be measured at the same time using the specific radioimmunoassay for thromboxane B2(TxB2) described by Carey and Forder (see above). This test provides an indication of the effects of a test compound against 5-LO and also cyclooxygenase in the presence of blood cells and proteins. It permits the selectivity of the inhibitory effect on 5-LO or cyclooxygenase to be assessed. • b) An ex vivo assay system, which is a variation of test a) above, involving administration to a group of rats of a test compound (usually orally as the suspension produced when a solution of the test compound in dimethylsulphoxide is added to carboxymethylcellulose), blood collection, heparinisation, challenge with A23187 and radioimmunoassay of LTB4 and TxB2. […]

Row | Structure (SMILES) | IC50
1 | COC1(/C(N)=C/C(=O)OCc2ccc3ccccc3c2)CCOCC1 [Example 1, naphth-2-ylmethyl (Z)-3-amino-3-(4-methoxytetrahydropyran-4-yi)prop-2-enoate] | 0.07 µM
2 | CO/N=C(\C)c1ccc(COC(=O)/C=C(\N)C2(OC)CCOCC2)cc1 [Example 2, 4-[(E)-1-methoxyiminoethyl]benzyl (Z)-3-amino-3-(4-methoxytetrahydropyran-4-yl)prop-2-enoate] | 9.36 µM
